Data: the Bradley open melting point set (2014)

| Compound | melting point [°C] |
| --- | --- |
| CC(C)[C@@H](NC(=O)OC(C)(C)C)C(=O)O [N-boc-D-valine] | 78 |
| C[C@@H](CO)NC(=O)OC(C)(C)C [N-boc-L-alaninol] | 59 |
| CSCC[C@H](NC(=O)OC(C)(C)C)C(=O)O [N-boc-L-methionine] | 50 |
| CC(C)[C@H](NC(=O)OC(C)(C)C)C(=O)O [N-boc-L-valine] | 79 |
| CCCCOC(=O)c1ccc(O)cc1 [N-butyl 4-hydroxybenzoate] | 69 |
| CCCCc1ccccc1 [N-butylbenzene] | -88 |
| CCNc1ccccc1 [N-ethylaniline] | -64 |
| CC[C@H](C)[C@H](NC(=O)OCC1c2ccccc2-c2ccccc21)C(=O)O [N-fmoc-L-isoleucine] | 147 |
| CC(C)C[C@H](NC(=O)OCC1c2ccccc2-c2ccccc21)C(=O)O [N-fmoc-L-leucine] | 154 |
| CSCC[C@H](NC(=O)OCC1c2ccccc2-c2ccccc21)C(=O)O [N-fmoc-L-methionine] | 134 |
| CCCCCCCCCCCCCCCCCCCCCCCCCC [N-hexacosane] | 57 |
| CC(C)Nc1ccc(Nc2ccccc2)cc1 [N-isopropyl-n'-phenyl-p-phenylenediamine] | 77 |
| CN(N)c1ccc(C(F)(F)F)cc1[N+](=O)[O-] [N-methyl-N-[2-nitro-4-(trifluoromethyl)phenyl]hydrazine] | 66 |
| CNC=O [N-methylformamide] | -4 |
| OCCNc1ccccc1 [N-phenylethanolamine] | -30 |
| CCCOC(=O)c1ccc(O)cc1 [N-propyl 4-hydroxybenzoate] | 97 |
| CC(C)(C)NCC(O)COc1cccc2c1C[C@H](O)[C@H](O)C2 (stereo partly drawn) [Nadolol] | 124 |
| C[C@]12CC[C@H]3[C@@H](CCC4=CC(=O)CC[C@@H]43)[C@@H]1CC[C@@H]2O [Nandrolone] | 112 |
| c1ccc2cc3cc4ccccc4cc3cc2c1 [Naphthacene] | 357 |
| c1ccc2ccccc2c1 [Naphthalene] | 82 |
| COc1ccc2cc(C(C)CO)ccc2c1 (stereo not drawn) [Naproxol] | 87 |
| O=C(O)c1cccnc1 [Niacin] | 237 |
| C#C[C@]1(O)CC[C@H]2[C@@H]3CCC4=CC(=O)CC[C@@H]4[C@H]3CC[C@@]21CC [Norgestrel] | 206 |
| Cc1ccc(C)n1-c1ccc(F)cc1 [OSM-S-01] | 48.5 |

| Compound | melting point [°C] |
| --- | --- |
| Cc1cc(C(O)=NCC(=N)O)c(C)n1-c1ccc(F)cc1 [OSM-S-19] | 194 |
| CCOC(=O)c1cc(C)n(-c2ccc(C)cc2)c1C [OSM-S-30] | 61 |
| CC(=O)N(C1=NC(=O)/C(=C/c2cc(C)n(-c3ccc(C(F)(F)F)cc3)c2C)S1)c1ccccc1 [OSM-S-45] | 310 |
| OC1=NC(=Nc2ccccc2)S/C1=C\c1ccccc1 [OSM-S-55] | 260 |
| C[C@@H]1O[C@@H](O[C@H]2C[C@@H](O)[C@]3(CO)[C@H]4[C@H](O)C[C@]5(C)[C@@H](C6=CC(=O)OC6)CC[C@]5(O)[C@@H]4CC[C@]3(O)C2)[C@H](O)[C@H](O)[C@H]1O [Ouabain] | 200 |
| Clc1ccc(-c2ccccc2)cc1 [PCB-3] | 78 |
| Clc1ccc(-c2ccccc2Cl)cc1 [PCB-8] | 44 |
| Clc1ccc(-c2ccc(Cl)cc2)cc1 [PCB-15] | 149 |
| Clc1ccc(-c2ccc(Cl)cc2Cl)cc1 [PCB-28] | 58 |
| Clc1ccc(Cl)c(-c2cc(Cl)c(Cl)cc2Cl)c1 [PCB-101] | 77 |
| Clc1ccc(-c2ccc(Cl)c(Cl)c2Cl)cc1Cl [PCB-105] | 117 |
| Clc1cc(Cl)c(-c2ccc(Cl)c(Cl)c2Cl)cc1Cl [PCB-138] | 79 |
| CCCCCCCCCCCCCCCC(=O)O [Palmitic acid] | 62.5 |
| Oc1c(Br)c(Br)c(Br)c(Br)c1Br [Pentabromophenol] | 230 |
| [O-][Cl+3]([O-])([O-])O [Perchloric acid] | -17 |
| ClC(Cl)=C/C3C(C(=O)OCc2cccc(Oc1ccccc1)c2)C3(C)C (stereo not drawn) [Permethrin] | 34 |
| c1ccc2c(c1)Nc1ccccc1S2 [Phenothazine] | 187 |
| c1ccc2c(c1)Oc1ccccc1S2 [Phenoxathiine] | 59.5 |
| CCCN(CC1CC1)c1c([N+](=O)[O-])cc(C(F)(F)F)cc1[N+](=O)[O-] [Profluralin] | 32 |
| CN[C@@H](C)[C@@H](O)c1ccccc1 [Pseudoephedrine] | 118 |
| c1cnccn1 [Pyrazine] | 55 |
| Sc1ccccn1 [Pyridine-2-thiol] | 129 |
| c1ccncc1 [Pyridine] | -42 |
| O=C(O)c1cc(C(=O)O)c(C(=O)O)cc1C(=O)O [Pyromellitic Acid] | 276 |

Further lines, results first:

| melting point [°C] | Compound |
| --- | --- |
| 95 | CC(C)(C)OC(=O)N[C@@H](CO)Cc1ccccc1 [N-boc-D-phenylalaninol] |
| 90 | CC(C)(C)OC(=O)N[C@H](CO)C(=O)O [N-boc-D-serine] |
| 82 | C[C@H](NC(=O)OC(C)(C)C)C(=O)O [N-boc-L-alanine] |
| 62 | CC(C)(C)OC(=O)N[C@H](COCc1ccccc1)C(=O)O [N-boc-o-benzyl-D-serine] |
| 110 | O=C(O)C1CCN(C(=O)CCl)CC1 [N-chloroacetylisonipecotic acid] |
| -7 | CCCCCCCCCCCCc1ccccc1 [N-dodecylbenzene] |
| -46 | CCN(C(C)C)C(C)C [N-ethyldiisopropylamine] |
| 41 | CCCCCCCCCCCCCCCCCCCCC [N-heneicosane] |
| -48 | CCCCCCCc1ccccc1 [N-heptylbenzene] |
| 153 | CNc1ccc([N+](=O)[O-])cc1 [N-methyl-4-nitroaniline] |
| 218 | O=C1C=C/C(=O)N(N1)C [N-methylmaleic hydrazide] |
| 10 | CCCCCCCCCCCCCCC [N-pentadecane] |
| 38 | CCCCCOC(=O)c1ccc(O)cc1 [N-pentyl 4-hydroxybenzoate] |
| 118 | O=C(O)CNc1ccccc1 [N-phenylglycine] |
| 73 | CC(C)(C)/[N+]([O-])=C/c1ccccc1 [N-tert-butyl-alpha-phenylnitrone] |
| 141 | O=C(NC(Cc1ccccc1)C(=O)O)OCc1ccccc1[N+](=O)[O-] (stereo not drawn) [N-{[(2-nitrobenzyl)oxy]carbonyl}phenylalanine] |
| 230 | CCn1cc(C(=O)O)c(=O)c2ccc(C)nc21 [Nalidixic Acid] |
| 163 | NC(=O)[C@H](Cc1ccccc1)NC(=O)OCc1ccccc1 [Nalpha-[(benzyloxy)carbonyl]phenylalaninamide] |
| 135 | O=C(O)Cc1cccc2ccccc12 [Naphthalen-1-Yl-Acetic Acid] |
| 190 | Nc1cc2ccccc2cc1N [Naphthalene-2,3-diamine] |
| 290 | C[C@@H]1CC=CC=CC=CC=C[C@H](OC2O[C@H](C)[C@@H](O)[C@H](N)[C@@H]2O)C[C@@H]2O[C@](O)(C[C@@H](O)C[C@H]3O[C@@H]3C=CC(=O)O1)C[C@H](O)[C@H]2C(=O)O (stereo partly drawn) [Natamycin] |
| 237 | O=C(O)c1cccnc1 [Nicotinic acid] |
| -18 | CCCCCCCCC=O [Nonanal] |
| 242 | O=C(OCCOCn1c2N\C(=N/C(=O)c2nc1)N)C [O-Acetylacyclovir] |
| 118 | Cc1cc(C=O)c(C)n1-c1ccc(F)cc1 [OSM-S-02] |

| melting point [°C] | Compound |
| --- | --- |
| 64.5 | CCOC(=O)c1cc(C)n(-c2ccc(F)cc2)c1C [OSM-S-03] |
| 178 | Cc1cc(C(=O)OCC(=N)O)c(C)n1-c1ccc(F)cc1 [OSM-S-05] |
| 71.5 | Cc1ccc(C)n1-c1ccc(C(F)(F)F)cc1 [OSM-S-27] |
| 277 | Cc1cc(/C=C2\SC(=Nc3ccccc3)N=C2O)c(C)n1-c1ccccn1 [OSM-S-51] |
| 71.5 | Cc1cc(/C=C2\S/C(=N\c3ccccc3)N(C3CCCC3)C2=O)c(C)n1-c1ccc(C(F)(F)F)cc1 [OSM-S-54] |
| 85 | Clc1cc(Cl)c(Cl)c(Cl)c1Cl [Pentachlorobenzene] |
| 133 | Cc1c(C)c(C)c(C=O)c(C)c1C [Pentamethylbenzaldehyde] |
| -78 | CCCCCO [Pentan-1-ol] |
| 278 | c1cc2cccc3c4cccc5cccc(c(c1)c23)c54 [Perylene] [listing 1 of 2 here] |
| 278 | c1cc2cccc3c4cccc5cccc(c(c1)c23)c54 [Perylene] [listing 2 of 2 here] |
| 101 | c1ccc2c(c1)ccc1ccccc12 [Phenanthrene] |
| 262 | O=C1OC(c2ccc(O)cc2)(c2ccc(O)cc2)c2ccccc21 [Phenolphthalein] |
| 105 | CCCCC1C(=O)N(c2ccccc2)N(c2ccccc2)C1=O [Phenylbutazone] |
| 56 | O=Cc1ccccc1C=O [Phthalaldehyde] |
| 106 | O=C(O)CCCCCC(=O)O [Pimelic Acid] |
| 94 | N#Cc1ccc2c(c1)OCO2 [Piperonylonitrile] |
| 279 | COc1cc2nc(N3CCN(C(=O)c4ccco4)CC3)nc(N)c2cc1OC [Prazosin] |
| 240 | C[C@]12C=CC(=O)C=C1CC[C@@H]1[C@@H]2[C@@H](O)C[C@@]2(C)[C@H]1CC[C@]2(O)C(=O)CO [Prednisolone] |
| 130 | CC(=O)[C@H]1CC[C@H]2[C@@H]3CCC4=CC(=O)CC[C@]4(C)[C@H]3CC[C@]12C [Progesterone] |
| 96 | CCCOC(=O)c1ccc(O)cc1 [Propyl 4-hydroxybenzoate] |
| 189 | NC(=O)c1cnccn1 [Pyrazinamide] |
| -60 | C1CCNC1 [Pyrrolidine] |
| 174 | C=C[C@H]1CN2CC[C@H]1C[C@@H]2[C@@H](O)c1ccnc2ccc(OC)cc12 [Quinidine] |
| 190 | CC=1CCC[C@](C)(C)C=1/C=CC(C)=CC=CC(C)=CC(=O)O [Retinoic acid] |
| 122 | C[C@@H]1O[C@H](O)[C@@H](O)[C@H](O)[C@H]1O [Rhamnose] |
